Reference: PubChem BioAssay (NCI)
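Exposure lasted 48 hours, with cells grown in 96-well plates and compounds tested at five concentrations. At the TGI there is no net growth.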

Assays:
Assay in all cases: growth of human tumour cells (NCI), 48 h
[1] = tested on: 786-0 renal
[2] = tested on: A498 renal
[3] = tested on: A549 NSCLC
[4] = tested on: BT-549 breast
[5] = tested on: CAKI-1 renal
[6] = tested on: COLO 205 colon
[7] = tested on: DU-145 prostate
[8] = tested on: EKVX NSCLC
[9] = tested on: HCC-2998 colon
[10] = tested on: HCT-116 colon
[11] = tested on: HCT-15 colon
[12] = tested on: HL-60(TB) leukemia
[13] = tested on: HOP-92 NSCLC
[14] = tested on: HS 578T breast
[15] = tested on: HT29 colon
[16] = tested on: IGROV1 ovarian
[17] = tested on: K-562 leukemia
[18] = tested on: KM12 colon
[19] = tested on: LOX IMVI melanoma
[20] = tested on: M14 melanoma
[21] = tested on: MALME-3M melanoma
[22] = tested on: MCF7 breast
[23] = tested on: MDA-MB-231 breast
[24] = tested on: MDA-MB-435
[25] = tested on: MDA-N
[26] = tested on: MOLT-4 leukemia
[27] = tested on: NCI-H226 lung
[28] = tested on: NCI-H23 lung
[29] = tested on: NCI-H460 lung
[30] = tested on: NCI-H522 lung
[31] = tested on: NCI/ADR-RES ovarian
[32] = tested on: OVCAR-3 ovarian
[33] = tested on: OVCAR-4 ovarian
[34] = tested on: OVCAR-5 ovarian
[35] = tested on: OVCAR-8 ovarian
[36] = tested on: PC-3 prostate
[37] = tested on: RPMI-8226 leukemia
[38] = tested on: RXF 393 renal
[39] = tested on: SF-268 CNS
[40] = tested on: SF-539 CNS
[41] = tested on: SK-MEL-2 melanoma
[42] = tested on: SK-MEL-28 melanoma
[43] = tested on: SK-MEL-5 melanoma
[44] = tested on: SK-OV-3 ovarian
[45] = tested on: SN12C renal
[46] = tested on: SNB-19 CNS
[47] = tested on: SNB-75 CNS
[48] = tested on: SR leukemia
[49] = tested on: SW-620 colon
[50] = tested on: T-47D breast
[51] = tested on: TK-10 renal
[52] = tested on: U251 CNS
[53] = tested on: UACC-257 melanoma
[54] = tested on: UACC-62 melanoma
[55] = tested on: UO-31 renal
[56] = tested on: ACHN renal
[57] = tested on: CCRF-CEM leukemia
[58] = tested on: SF-295 CNS
[59] = tested on: HOP-62 NSCLC

Measured: TGI

Cc1ccc(NC(=O)c2cc(S(=O)(=O)Nc3n[nH]c(=O)n3-c3ccccc3)c(S)cc2Cl)cc1
not listed: [56] | [57] | [58] | [59]
> 100 µM: all other assays above

Cc1cc(C)c2c(c1)CC1(Cc3c(ccc(C)c3C)C1=O)C2=O (stereo unspecified)
not listed: [6] | [19] | [59]
> 100 µM: all other assays above

Cc1n[nH]c(=O)n1/N=C/c1ccc([N+](=O)[O-])cc1
not listed: [16] | [20] | [44] | [46]
> 100 µM: all other assays above
